From PMC7781311 (bioRxiv, 2021)
Starred links: 1 amine or outer side, 2 acyl side, 3 side chain; linkers in the order of their positions; H or OH if unused. Residues, ends and D or L forms follow the SMILES beside them. CO = O=C([*:1])[*:2]

tested on: SARS-CoV-2-S pseudotyped particles (PP); assay type: cell-based; conditions: not given

Structure (SMILES) | SARS-2 PP Efficacy
CCOC(=O)c1ccc(OC(=O)CCCCCNC(=N)N)cc1 [NCGC00025297, Gabexate] | 0%
N=C(N)c1ccc2cc(OC(=O)c3ccc(N=C(N)N)cc3)ccc2c1 [NCGC00160398, Nafamostat] | 100%
CN(C)C(=O)COC(=O)Cc1ccc(OC(=O)c2ccc(NC(=N)N)cc2)cc1 [NCGC00167526, Camostat] | 100%
COC(=O)[C@H](Cc1cccc(C(=N)N)c1)[C@@H](C)NC(=O)c1ccc(-c2cc[n+]([O-])cc2)cc1 [NCGC00378763, Otamixaban] | 50%
N=C(N)c1ccc2nc(-c3cc(CC(=O)N[C@@H](CC(=O)O)C(=O)O)cc(-c4cc(S(N)(=O)=O)ccc4O)c3O)[nH]c2c1 [NCGC00387860, PCI-27483] | about 60%
CC(C)[C@H](NC(=O)[C@H](CCCNC(=N)N)NC(=O)N[C@@H](Cc1ccccc1)C(=O)O)C(=O)N[C@H](C=O)CCCNC(=N)N [NCGC00390338, Antipain] ({Phe-CO}-Arg-Val-Arg-aldehyde) | about 60%

same assay, conditions: listed as otamixaban

Structure (SMILES) | SARS-2 PP Efficacy
COC(=O)[C@H](Cc1cccc(C(=N)N)c1)[C@@H](C)NC(=O)c1ccc(-c2cc[n+]([O-])cc2)cc1 [NCGC00378763, Otamixaban] | about 50%
